Assay results: ChEMBL document CHEMBL1135668, “Design, synthesis, structure-activity relationships, and molecular modeling studies of 2,3-diaryl-1,3-thiazolidin-4-ones as potent anti-HIV agents” (J Med Chem, 2002)
Active and inactive are the calls of the source. No cut-off for these calls is given here.

Experiments:
[1] = tested on: Human immunodeficiency virus 1; experiment: Cytotoxic concentration (anti-HIV activity) required to reduce […] by 50% in MT-4 cells; type: functional; settings: Human immunodeficiency virus 1, MT4
[2] = tested on: Human immunodeficiency virus 1; experiment: Selectivity index as the ratio of CC50 to that of EC50 value in MT cells; type: functional
[3] = tested on: Human immunodeficiency virus 1; experiment: Effective concentration (anti-HIV activity) required to reduce HIV-1 induced cytopathic effect by 50% in MT-4 cells; type: functional, organism-based; settings: Human immunodeficiency virus 1, MT4
[4] = target: Human immunodeficiency virus type 1 reverse transcriptase (Human immunodeficiency virus 1, UniProt Q72547); experiment: HIV-1 reverse transcriptase (RT) activity using Poly (rC)/oligo (dG) as template/primer and [3H]dGTP
[5] = tested on: Human immunodeficiency virus 1; experiment: Concentration required to reduce CEM cell viability by 50%; settings: Human immunodeficiency virus 1, CCRF-CEM
[6] = tested on: Human immunodeficiency virus 1; experiment: Effective concentration (anti-HIV activity) required to reduce HIV-1 induced cytopathic effect by 50%in CEM cells; type: functional, organism-based; settings: Human immunodeficiency virus 1, CCRF-CEM
[7] = Selectivity index as the ratio of CC50 to that of EC50 value in CEM cells; type: functional, CCRF-CEM
[8] = tested on: Human immunodeficiency virus 1; experiment: Concentration required to reduced HIV-1-induced cytopathic effect by 50%in CEM cells; type: functional; settings: Human immunodeficiency virus 1, CCRF-CEM
[9] = tested on: Human immunodeficiency virus 1; experiment: (§1) Concentration required to reduced HIV-1-induced cytopathic effect by 50% in CEM cells; type: functional; settings: Human immunodeficiency virus 1, CCRF-CEM
[10] = tested on: Human immunodeficiency virus 1; experiment: Anti-HIV-1 activity against mutant HIV-1 strain (103Lys-Asn) in CEM cells; type: functional, organism-based; settings: Human immunodeficiency virus 1, CCRF-CEM
[11] = tested on: Human immunodeficiency virus 1; experiment: Anti-HIV-1 activity against mutant HIV-1 strain(181 Tyr-Cys) in CEM cells; type: functional, organism-based; settings: Human immunodeficiency virus 1, CCRF-CEM
[12] = tested on: Human immunodeficiency virus 1; experiment: Anti-HIV-1 activity against mutant HIV-1 strain (138Glu-Lys) in CEM cells; type: functional, organism-based; settings: Human immunodeficiency virus 1, CCRF-CEM
[13] = tested on: Human immunodeficiency virus 1; experiment: Anti-HIV-1 activity against mutant HIV-1 strain (100Leu-Ile) in CEM cells; type: functional, organism-based; settings: Human immunodeficiency virus 1, CCRF-CEM
[14] = tested on: Human immunodeficiency virus 1; experiment: Anti-HIV-1 activity against mutant HIV-1 strain(188 Tyr-His) in CEM cells; type: functional, organism-based; settings: Human immunodeficiency virus 1, CCRF-CEM
[15] = tested on: Human immunodeficiency virus 1; experiment: Anti-HIV-1 activity against mutant HIV-1 strain (HIV-1IIIB) in CEM cells; type: functional, organism-based; settings: Human immunodeficiency virus 1, CCRF-CEM
[16] = tested on: Human immunodeficiency virus 1; experiment: Effective concentration (anti-HIV activity) required to reduce HIV-1 induced cytopathic effect by 50% in MT-4 cells; NA is Not Active.; type: functional, organism-based; settings: mt4
[17] = Selectivity index as the ratio of CC50 to that of EC50 value.; type: functional
[18] = tested on: Human immunodeficiency virus 1; experiment: as §1; type: functional, organism-based; settings: Human immunodeficiency virus 1, CCRF-CEM
[19] = tested on: Human immunodeficiency virus 1; experiment: Effective concentration (anti-HIV activity) required to reduce HIV-1 induced cytopathic effect by 50%in CEM cells; NA is Not Active.; type: functional, organism-based; settings: ccrf-cem
[20] = target: Human immunodeficiency virus type 1 reverse transcriptase (Human immunodeficiency virus 1) (UniProt Q72547); experiment: HIV-1 reverse transcriptase (RT) enzymatic activity was evaluated using Poly (rC)/oligo (dG) as template/primer and [3H]dGTP as radio labeled substrate;NA is not active.
[21] = target: Human immunodeficiency virus type 1 reverse transcriptase (Human immunodeficiency virus 1) (UniProt Q72547); experiment: HIV-1 reverse transcriptase (RT) enzymatic activity was evaluated using Poly (rC)/oligo (dG) as template/primer and [3H]dGTP as radio labelled substrate
[22] = tested on: Human immunodeficiency virus 1; experiment: Concentration required to reduce CEM cell viability by 50%; settings: Human immunodeficiency virus 1, CCRF-CEM; remark: listed apart in the source
[23] = tested on: Human immunodeficiency virus 1; experiment: Effective concentration (anti-HIV activity) required to reduce HIV-1 induced cytopathic effect by 50% in MT-4 cells; NA is Not Active; type: functional, organism-based; settings: mt4

| EC50 [3] | IC50 [4] | EC50 [6] | Structure (SMILES) | CC50 [1] | Selectivity index [2] | Selectivity index [7] | further results |
| --- | --- | --- | --- | --- | --- | --- | --- |
| 1.24 µM | – | – | O=C1CSC(c2c(F)cccc2Cl)N1c1ccc(Br)cn1 (stereo unspecified) | 30.7 µM | 25 | – | – |
| 53.5 µM | – | – | Cc1cccnc1N1C(=O)CSC1c1c(F)cccc1F (stereo unspecified) | > 319 µM | >6 | – | – |
| 4.85 µM | 61.4 µM | 2.5 µM | O=C1CSC(c2c(F)cccc2F)N1c1ccc(Br)cn1 (stereo unspecified) | 36.1 µM | 7.4 | 18 | CC50 [5]: 45.8 µM |
| 0.278 µM | – | 0.242 µM | O=C1CSC(c2c(F)cccc2Cl)N1c1ccccn1 (stereo unspecified) | 41.7 µM | 150 | 791 | CC50 [8]: 191 µM |
| – | – | – | O=C1CSC(c2c(Cl)cccc2Cl)N1c1ccncc1 (stereo unspecified) | 10 µM | – | – | EC50 [16]: Not Active |
| 0.059 µM | 4.12 µM | 0.078 µM | Cc1cc(C)nc(N2C(=O)CSC2c2c(F)cccc2F)c1 (stereo unspecified) | 43.4 µM | 735 | >=800 | CC50 [9]: ≥ 62.4 µM |
| 0.401 µM | – | – | O=C1CSC(c2c(Cl)cccc2Cl)N1c1ccccc1 (stereo unspecified) | 38.1 µM | 95 | – | – |
| 7.19 µM | 67 µM | 4.13 µM | O=C1CSC(c2c(F)cccc2F)N1c1ccc(Cl)cn1 (stereo unspecified) | 29.8 µM | 4.2 | 11 | CC50 [5]: 47.1 µM |
| 0.042 µM | – | – | Cc1cc(C)nc(N2C(=O)CSC2c2c(F)cccc2Cl)c1 (stereo unspecified) | 41.6 µM | 986 | – | – |
| 1.78 µM | – | 1.86 µM | O=C1CSC(c2c(Cl)cccc2Cl)N1c1ccc(Cl)cn1 (stereo unspecified) | 19.2 µM | 11 | 17 | CC50 [9]: 31.1 µM |
| 95.1 µM | – | – | O=C1CSC(c2c(F)cccc2F)N1c1cccnc1 (stereo unspecified) | > 427 µM | – | – | Selectivity index [17]: > 4.5 |
| 0.178 µM | – | – | O=C1CSC(c2c(Cl)cccc2Cl)N1c1ccccn1 (stereo unspecified) | 38.5 µM | 216.3 | – | – |
| 0.248 µM | 2.84 µM | – | Cc1ccnc(N2C(=O)CSC2c2c(F)cccc2F)c1 (stereo unspecified) | 242 µM | 976 | – | – |
| 1.41 µM | 42.4 µM | 1.32 µM | Cc1ccc(N2C(=O)CSC2c2c(Cl)cccc2Cl)nc1 (stereo unspecified) | 24.9 µM | 17.7 | 24 | EC50 [18]: 31.2 µM |
| 0.09 µM | – | 0.13 µM | Cc1cc(C)nc(N2C(=O)CSC2c2c(Cl)cccc2Cl)c1 (stereo unspecified) | 64.1 µM | 712 | >=2178 | CC50 [5]: ≥ 283 µM |
| – | – | – | O=C1CSC(c2c(F)cccc2F)N1c1ccncc1 (stereo unspecified) | 33.9 µM | – | – | EC50 [19]: Not Active; CC50 [5]: 284 µM; EC50 [16]: Not Active; IC50 [20]: inactive |
| 2.13 µM | – | – | O=C1CSC(c2c(F)cccc2Cl)N1c1ccc(Cl)cn1 (stereo unspecified) | 29.4 µM | – | – | Selectivity index [17]: 14 |
| 0.053 µM | 2.85 µM | 0.04 µM | Cc1cccc(N2C(=O)CSC2c2c(F)cccc2Cl)n1 (stereo unspecified) | 31.9 µM | 601 | 1108 | CC50 [8]: 44.3 µM |
| 0.272 µM | – | 0.173 µM | O=C1CSC(c2c(Cl)cccc2Cl)N1c1cccc(Br)n1 (stereo unspecified) | 67.4 µM | 248 | >1431 | CC50 [8]: > 248 µM |
| 5.13 µM | – | – | Cc1ccc(N2C(=O)CSC2c2c(F)cccc2F)nc1 (stereo unspecified) | 202 µM | 39.3 | – | – |
| – | – | – | Cc1cccnc1N1C(=O)CSC1c1c(Cl)cccc1Cl (stereo unspecified) | 42.6 µM | – | – | EC50 [16]: Not Active |
| 1.51 µM | 56.6 µM | 1.31 µM | O=C1CSC(c2c(Cl)cccc2Cl)N1c1ccc(Br)cn1 (stereo unspecified) | 28.2 µM | 18.6 | 20 | CC50 [9]: 26 µM |
| 0.147 µM | – | – | Cc1ccnc(N2C(=O)CSC2c2c(Cl)cccc2Cl)c1 (stereo unspecified) | > 368 µM | >2500 | – | – |
| 0.099 µM | 4.12 µM | 0.108 µM | Cc1ccnc(N2C(=O)CSC2c2c(F)cccc2Cl)c1 (stereo unspecified) | 33.9 µM | 343 | 525 | CC50 [9]: 56.7 µM |
| 0.064 µM | – | – | O=C1CSC(c2c(F)cccc2Cl)N1c1cccc(Br)n1 (stereo unspecified) | 30.7 µM | 484 | – | – |
| 0.855 µM | – | – | O=C1CSC(c2c(F)cccc2F)N1c1ccccn1 (stereo unspecified) | > 427 µM | >500 | – | – |
| – | – | – | O=C1CSC(c2c(Cl)cccc2Cl)N1c1cccnc1 (stereo unspecified) | 23.4 µM | – | – | EC50 [23]: Not Active |

| Structure (SMILES) | EC50 [3] | IC50 [4] | EC50 [6] | CC50 [1] | Selectivity index [2] | Selectivity index [7] | further results |
| --- | --- | --- | --- | --- | --- | --- | --- |
| c1ccc2[nH]c(-c3cscn3)nc2c1 [THIABENDAZOLE] | 0.352 µM | 14.6 µM | 1.1 µM | 19.2 µM | 54.5 | 45 | CC50 [9]: 50 µM; EC50 [10]: 15.6 µM; EC50 [11]: 13.8 µM; EC50 [12]: 1.73 µM; EC50 [13]: 3.12 µM; EC50 [14]: 4.16 µM; EC50 [15]: 1.39 µM |
| O=C1CSC(c2c(F)cccc2F)N1c1cccc(Br)n1 (stereo unspecified) | 0.03 µM | – | 0.03 µM | 32 µM | 1066 | >8980 | EC50 [10]: > 11 µM; IC50 [21]: 0.91 µM; EC50 [11]: 1.88 µM; EC50 [12]: 0.073 µM; EC50 [13]: 0.94 µM; EC50 [14]: 1.02 µM; EC50 [15]: 0.026 µM; CC50 [22]: > 269 µM |
| Cc1cccc(N2C(=O)CSC2c2c(Cl)cccc2Cl)n1 (stereo unspecified) | 0.044 µM | 2.24 µM | – | 285 µM | 6470 | – | EC50 [10]: ≥ 60 µM; EC50 [12]: 0.117 µM; EC50 [13]: 0.15 µM; EC50 [14]: 16.2 µM; EC50 [15]: 0.073 µM |
| Cc1cccc(N2C(=O)CSC2c2c(F)cccc2F)n1 (stereo unspecified) | 0.082 µM | 2.9 µM | – | 126 µM | 1536 | – | EC50 [10]: 35.9 µM; EC50 [11]: ≥ 13 µM; EC50 [12]: 0.39 µM; EC50 [13]: 0.75 µM; EC50 [14]: ≥ 13 µM; EC50 [15]: 0.117 µM |
